The test concerns CD8F1 mice, subcutaneous mammary adenocarcinoma, T/C%. Put plainly: NCI In Vivo Anticancer Drug Screen. Data for tumor model Mammary Adenocarcinoma CD8F1 (subcutaneous) in CD8F1. As to conditions: higher = larger tumour. A digest of the protocol: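 Ratio of treated to vehicle-control outcome, based on either survival or tumor size, in mice bearing transplantable tumors given the test compound.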

The mark [1] stands for this setting: endpoint: median tumor weight (est.), dose: 6.25 mg/kg/injection, schedule: Q07DX005 (ip), vehicle: Klucel (hydroxypropylcellulose) (HPC).
The mark [2] stands for this setting: endpoint: median tumor weight (est.), dose: 12.5 mg/kg/injection, schedule: Q07DX005 (ip), vehicle: Klucel (hydroxypropylcellulose) (HPC).
Setting [3] is: endpoint: median tumor weight (est.), dose: 50.0 mg/kg/injection, schedule: Q07DX005 (ip), vehicle: Klucel (hydroxypropylcellulose) (HPC).
Where [4] appears, read: endpoint: median tumor weight (est.), dose: 100.0 mg/kg/injection, schedule: Q07DX005 (ip), vehicle: Klucel (hydroxypropylcellulose) (HPC).
Where [5] appears, read: endpoint: median tumor weight (est.), dose: 200.0 mg/kg/injection, schedule: Q07DX005 (ip), vehicle: Klucel (hydroxypropylcellulose) (HPC).

“And” between values parts separate entries of the source, which are not always exact repeats. Equal values may be shown once. Results filed as inconclusive are left out.

For `C[CH2][Pb]([CH2]C)([CH2]C)[O]C(=O)COc1ccccc1`, the T/C (endpoint: mean tumor weight, dose: 0.75 mg/kg/injection, schedule: Q01DX009 (ip), vehicle: saline) is 112 % of control; the T/C (endpoint: mean tumor weight, dose: 0.75 mg/kg/injection, schedule: Q07DX009 (ip), vehicle: saline) is 398 % of control; the T/C (endpoint: mean tumor weight, dose: 1.5 mg/kg/injection, schedule: Q01DX009 (ip), vehicle: saline) was 57 % of control; the T/C (endpoint: mean tumor weight, dose: 1.5 mg/kg/injection, schedule: Q07DX009 (ip), vehicle: saline) was 192 % of control; the T/C (endpoint: mean tumor weight, dose: 3.0 mg/kg/injection, schedule: Q01DX009 (ip), vehicle: saline) was 73 % of control; the T/C (endpoint: mean tumor weight, dose: 3.0 mg/kg/injection, schedule: Q07DX009 (ip), vehicle: saline) is 172 % of control. Besides, the T/C (endpoint: mean tumor weight, dose: 6.0 mg/kg/injection, schedule: Q07DX009 (ip), vehicle: saline) was 165 % of control.
Regarding `CS(=O)(=O)OCCN(CCOS(C)(=O)=O)c1ccc(C=Nc2ccc(-c3csc(COc4ccccc4)n3)cc2)cc1`, the T/C was 88 % of control under setting [1]; 97 % of control and 103 % of control under setting [2]; 75 % of control and 79 % of control (endpoint: median tumor weight (est.), dose: 25.0 mg/kg/injection, schedule: Q07DX005 (ip), vehicle: Klucel (hydroxypropylcellulose) (HPC)); 83 % of control under setting [3]; 27 % of control and 44 % of control under setting [4].
On to `CC1=C2CC(C)(C)/C=C\C(=O)/C(C)=C\C3=C[C@H](C)C[C@]3(O2)C1=O`, for which the T/C by setting is: (endpoint: median tumor weight (est.), dose: 1.5 mg/kg/injection, schedule: Q07DX005 (ip), vehicle: Klucel (hydroxypropylcellulose) (HPC)) 78 % of control; (endpoint: median tumor weight (est.), dose: 1.5 mg/kg/injection, schedule: Q07DX005 (ip), vehicle: saline) 94 % of control; (endpoint: median tumor weight (est.), dose: 3.0 mg/kg/injection, schedule: Q07DX005 (ip), vehicle: Klucel (hydroxypropylcellulose) (HPC)) 212 % of control; (endpoint: median tumor weight (est.), dose: 6.0 mg/kg/injection, schedule: Q07DX005 (ip), vehicle: Klucel (hydroxypropylcellulose) (HPC)) 174 % of control; (endpoint: median tumor weight (est.), dose: 6.0 mg/kg/injection, schedule: Q07DX005 (ip), vehicle: saline) 112 % of control; (endpoint: median tumor weight (est.), dose: 12.0 mg/kg/injection, schedule: Q07DX005 (ip), vehicle: Klucel (hydroxypropylcellulose) (HPC)) 80 % of control. The T/C is 88 % of control (endpoint: median tumor weight (est.), dose: 12.0 mg/kg/injection, schedule: Q07DX005 (ip), vehicle: saline); 466 % of control (endpoint: median tumor weight (est.), dose: 24.0 mg/kg/injection, schedule: Q07DX005 (ip), vehicle: Klucel (hydroxypropylcellulose) (HPC)); 44 % of control (endpoint: median tumor weight (est.), dose: 48.0 mg/kg/injection, schedule: Q07DX005 (ip), vehicle: saline).
As to `CN(C)N=Nc1ccc(S(N)(=O)=O)cc1`, the T/C reads like this: under setting [2], 225 % of control and 117 % of control; under setting [3], 213 % of control and 73 % of control; under setting [4], 72 % of control and 93 % of control; under setting [5], 48 % of control; (endpoint: median tumor weight (est.), dose: 400.0 mg/kg/injection, schedule: Q07DX005 (ip), vehicle: Klucel (hydroxypropylcellulose) (HPC)) 22 % of control.
For `O=C(O)C(CSC(c1ccccc1)(c1ccccc1)c1ccccc1)N=Cc1cccs1` (stereo not drawn), the T/C reads like this: (endpoint: median tumor weight change, dose: 62.5 mg/kg/injection, schedule: Q01DX001 (ip), vehicle: suspension in saline) 112 % of control; (endpoint: median tumor weight change, dose: 125.0 mg/kg/injection, schedule: Q01DX001 (ip), vehicle: suspension in saline) 111 % of control; (endpoint: median tumor weight change, dose: 250.0 mg/kg/injection, schedule: Q01DX001 (ip), vehicle: saline) 64 % of control; (endpoint: median tumor weight change, dose: 250.0 mg/kg/injection, schedule: Q01DX001 (ip), vehicle: suspension in saline) 95 % of control.
Consider `CC1(C)CC(=O)C(CSC(=O)c2ccccc2)C(=O)C1`, for which the T/C was 182 % of control under setting [1]; 55 % of control (endpoint: median tumor weight (est.), dose: 6.25 mg/kg/injection, schedule: Q07DX005 (ip), vehicle: saline); 102 % of control (endpoint: median tumor weight (est.), dose: 12.5 mg/kg/injection, schedule: Q07DX005 (ip), vehicle: saline); 158 % of control (endpoint: median tumor weight (est.), dose: 25.0 mg/kg/injection, schedule: Q07DX005 (ip), vehicle: saline); 39 % of control under setting [3]; 73 % of control (endpoint: median tumor weight (est.), dose: 50.0 mg/kg/injection, schedule: Q07DX005 (ip), vehicle: saline). In addition, the T/C is, setting by setting: under setting [4], 187 % of control; (endpoint: median tumor weight (est.), dose: 100.0 mg/kg/injection, schedule: Q07DX005 (ip), vehicle: saline) 64 % of control; under setting [5], 57 % of control.
As for `CC1CCC(NC(=O)N(CCCl)N=O)CC1` (stereo not drawn), the T/C (endpoint: mean tumor weight, dose: 6.25 mg/kg/injection, schedule: Q01DX009 (ip), vehicle: saline + alcohol) is 108 % of control; the T/C (endpoint: mean tumor weight, dose: 6.25 mg/kg/injection, schedule: Q01DX009 (ip), vehicle: saline) is 214 % of control; the T/C (endpoint: mean tumor weight, dose: 12.5 mg/kg/injection, schedule: Q01DX009 (ip), vehicle: saline + alcohol) is 27 % of control; the T/C (endpoint: mean tumor weight, dose: 12.5 mg/kg/injection, schedule: Q01DX009 (ip), vehicle: saline) is 50 % of control; the T/C (endpoint: mean tumor weight, dose: 12.5 mg/kg/injection, schedule: Q07DX006 (ip), vehicle: saline + alcohol) was 63 % of control; the T/C (endpoint: mean tumor weight, dose: 12.5 mg/kg/injection, schedule: Q07DX006 (ip), vehicle: saline) was 24 % of control. Moreover, the T/C reads like this: (endpoint: mean tumor weight, dose: 12.5 mg/kg/injection, schedule: Q07DX007 (ip), vehicle: saline + alcohol) 124 % of control; (endpoint: mean tumor weight, dose: 25.0 mg/kg/injection, schedule: Q01DX009 (ip), vehicle: saline) 47 % of control; (endpoint: mean tumor weight, dose: 25.0 mg/kg/injection, schedule: Q07DX006 (ip), vehicle: saline + alcohol) 28 % of control; (endpoint: mean tumor weight, dose: 25.0 mg/kg/injection, schedule: Q07DX006 (ip), vehicle: saline) 48 % of control; (endpoint: mean tumor weight, dose: 25.0 mg/kg/injection, schedule: Q07DX007 (ip), vehicle: saline + alcohol) 100 % of control; (endpoint: mean tumor weight, dose: 50.0 mg/kg/injection, schedule: Q07DX006 (ip), vehicle: saline + alcohol) 4 % of control. Moreover, the T/C is, setting by setting: (endpoint: mean tumor weight, dose: 50.0 mg/kg/injection, schedule: Q07DX006 (ip), vehicle: saline) 7 % of control; (endpoint: mean tumor weight, dose: 50.0 mg/kg/injection, schedule: Q07DX007 (ip), vehicle: saline + alcohol) 66 % of control; (endpoint: median tumor weight (est.), dose: 2.0 mg/kg/injection, schedule: Q07DX005 (ip), vehicle: Klucel (hydroxypropylcellulose) (HPC)) 98 % of control; (endpoint: median tumor weight (est.), dose: 4.0 mg/kg/injection, schedule: Q07DX005 (ip), vehicle: Klucel (hydroxypropylcellulose) (HPC)) 50 % of control; (endpoint: median tumor weight (est.), dose: 8.0 mg/kg/injection, schedule: Q07DX005 (ip), vehicle: Klucel (hydroxypropylcellulose) (HPC)) 38 % of control; (endpoint: median tumor weight (est.), dose: 16.0 mg/kg/injection, schedule: Q07DX005 (ip), vehicle: Klucel (hydroxypropylcellulose) (HPC)) 24 % of control. Further, the T/C was 98 % of control (endpoint: median tumor weight change, dose: 8.0 mg/kg/injection, schedule: Q01DX001 (ip), vehicle: Klucel (hydroxypropylcellulose) (HPC)); 68 % of control (endpoint: median tumor weight change, dose: 13.8 mg/kg/injection, schedule: Q01DX001 (ip), vehicle: Klucel (hydroxypropylcellulose) (HPC)); 78 % of control (endpoint: median tumor weight change, dose: 16.0 mg/kg/injection, schedule: Q01DX001 (ip), vehicle: Klucel (hydroxypropylcellulose) (HPC)); 23 % of control (endpoint: median tumor weight change, dose: 23.0 mg/kg/injection, schedule: Q01DX001 (ip), vehicle: Klucel (hydroxypropylcellulose) (HPC)); 42 % of control (endpoint: median tumor weight change, dose: 32.0 mg/kg/injection, schedule: Q01DX001 (ip), vehicle: Klucel (hydroxypropylcellulose) (HPC)); -12 % of control (endpoint: median tumor weight change, dose: 38.4 mg/kg/injection, schedule: Q01DX001 (ip), vehicle: Klucel (hydroxypropylcellulose) (HPC)). The T/C (endpoint: median tumor weight change, dose: 64.0 mg/kg/injection, schedule: Q01DX001 (ip), vehicle: Klucel (hydroxypropylcellulose) (HPC)) is -13 % of control and -32 % of control.
Regarding `COC(C(=O)C(O)C(C)O)C1Cc2cc3cc(OC4CC(OC(C)=O)C(OC5CC(O)C(OC)C(C)O5)C(C)O4)cc(O)c3c(O)c2C(=O)C1OC1CC(OC2CC(OC3CC(C)(O)C(OC(=O)C(C)C)C(C)O3)C(O)C(C)O2)C(O)C(C)O1` (stereo not drawn), the T/C is, setting by setting: (endpoint: median tumor weight (est.), dose: 0.5 mg/kg/injection, schedule: Q07DX005 (ip), vehicle: saline) 76 % of control; (endpoint: median tumor weight (est.), dose: 1.0 mg/kg/injection, schedule: Q07DX005 (ip), vehicle: saline) 30 % of control; (endpoint: median tumor weight (est.), dose: 2.0 mg/kg/injection, schedule: Q07DX005 (ip), vehicle: saline) 34 % of control.
With `CCC(C(=O)O)C(=O)O.[NH-]CC1CCCC[N-]1.[Pt+2]`, the T/C (endpoint: median tumor weight change, dose: 125.0 mg/kg/injection, schedule: Q01DX001 (ip), vehicle: saline) is 51 % of control.

The record behind these values is PubChem BioAssay AID220 (DTP/NCI, 2004).
